US11472788B2, “Benzoimidazoles as selective inhibitors of indoleamine 2,3-dioxygenases” (BEIGENE, LTD., priority 2017, dated 2022)

The molecules below were run against cellular IDO1 in HeLa cells (Homo sapiens (Human), UniProt P14902) (assay: HeLa Cell-Based IDO1 Kyn (Kynurenine) Production Assay). Details: IFN-γ induced IDO1, 48 hours incubation, Kyn absorbance at 480 nm.
cellular IDO1 in HeLa cells, sequence (P14902 whole entry): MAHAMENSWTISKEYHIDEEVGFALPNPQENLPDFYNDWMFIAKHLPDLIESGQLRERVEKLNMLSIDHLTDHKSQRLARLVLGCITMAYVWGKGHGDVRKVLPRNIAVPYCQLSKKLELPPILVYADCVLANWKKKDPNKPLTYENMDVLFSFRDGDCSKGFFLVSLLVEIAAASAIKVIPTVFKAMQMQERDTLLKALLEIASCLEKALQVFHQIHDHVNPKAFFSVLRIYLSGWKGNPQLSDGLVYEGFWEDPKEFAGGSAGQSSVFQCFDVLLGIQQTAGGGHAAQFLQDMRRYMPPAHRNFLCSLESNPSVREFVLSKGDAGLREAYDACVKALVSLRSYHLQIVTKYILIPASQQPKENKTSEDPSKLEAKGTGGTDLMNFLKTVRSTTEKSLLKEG
Protocol: HeLa Cell-Based IDO1 Kyn (Kynurenine) Production Assay:
The inhibitory activity of IDO1 inhibitors is determined by using a colorimetric reaction to measure Kyn generated from L-Trp (L-Tryptophon) oxidation by cellular IDO1 in HeLa cells after induction of IDO1 expression by IFN-γ.
Hela cells were obtained from the American Type Culture Collection and recovered in 10% FBS-containing phenol red-free DMEM medium. Cells were plated onto a 96-well plate (100 μl/well) at 8000 cells per well and kept at 37° C. in a humidified incubator supplied with 5% CO2. 4 hours later, Human recombinant IFN-γ (8901SC, CST) was added to cells (final concentration 100 ng/mL) to stimulate endogenous IDOL. Compounds at different concentrations diluted in dimethylsulfoxide (DMSO) were added simultaneously with IFN-γ and 0.4 mM L-Trp. Cells were kept at 37° C. in a humidified incubator supplied with 5% CO2. After 48 hours of incubation, 100 μl supernatant from each well was removed to a new plate. The protein in the medium was precipitated with the addition of 8 μl 6N trichloroacetic acid. The plate was incubated at 60° C. for 30 minutes and then centrifugation at 2500 rpm for 10 minutes to remove sediments. 80 μl supernatants were carefully removed to a new clean plate and added with an equal volume of 2% 4-(Dimethylamino)benzaldehyde (D2004, sigma) dissolved in glacial acetic acid. The absorbance at 480 nm wavelength derived from Kyn was measured using a PHERAstar FS plate reader (BMG LABTECH). The IC5C for each compound was derived from fitting the dose-response data to the four-parameter logistic model by using XLfit software (IDBS).
Molecule `C[C@H](c1nc2cc(F)c(F)cc2[nH]1)[C@H]1CC[C@@H](c2ccnc3ccc(F)cc32)CC1` [Example B1b, 4-((1R,4s)-4-((S)-1-(5,6-difluoro-1H-benzo[d]imidazol-2-yl)ethyl)cyclohexyl)-6-fluoroquinoline] has an EC50 of 59 nM.
Work on `C[C@@H](c1nc2c(Cl)c(F)c(F)cc2[nH]1)[C@H]1CC[C@@H](c2ccnc3ccc(F)cc32)CC1` [Example B125, 4-((1S,4s)-4-((R)-1-(4-chloro-5,6-difluoro-1H-benzo[d]imidazol-2-yl)ethyl)cyclohexyl)-6-fluoroquinoline] yielded an EC50 of 8.79 nM.
`Fc1ccc2nccc([C@H]3CC[C@@H](c4nc5cc(Cl)ccc5[nH]4)CC3)c2c1` [Example C2b, 4-((1s,4s)-4-(5-chloro-1H-benzo[d]imidazol-2-yl)cyclohexyl)-6-fluoroquinoline] gave an EC50 of 11 nM.
For `COC(=O)c1cccc2[nH]c([C@H](C)[C@H]3CC[C@@H](c4ccnc5ccc(F)cc54)CC3)nc12` [Example B210, methyl 2-((R)-1-((1s,4S)-4-(6-fluoroquinolin-4-yl)cyclohexyl)ethyl)-1H-benzo[d]imidazole-4-carboxylate], the EC50 was 26.6 nM.
`CC(c1nc2c(ccc3ccccc32)[nH]1)[C@H]1CC[C@@H](c2ccnc3ccc(F)cc32)CC1` (some centres unmarked) [B175] showed an EC50 of 1.7 nM.
`C[C@H](c1nc2cc(Cl)c(F)cc2[nH]1)[C@H]1CC[C@@H](c2ccnc3ccc(F)cc32)CC1` [Example B2b, 4-((1S,4s)-4-((R)-1-(5-chloro-6-fluoro-1H-benzo[d]imidazol-2-yl)ethyl)cyclohexyl)-6-fluoroquinoline] gave an EC50 of 50 nM.
`C[C@@H](c1nc2ccc(S(C)(=O)=O)cc2[nH]1)[C@H]1CC[C@H](c2ccnc3ccc(F)cc32)CC1` [Example B178, 6-fluoro-4-((1R,4r)-4-((R)-1-(6-(methylsulfonyl)-1H-benzo[d]imidazol-2-yl)ethyl)cyclohexyl)quinoline] showed an EC50 of 283 nM.
For `Fc1ccc2nccc(C3CCC(c4nc5cc(Cl)c(F)cc5[nH]4)CC3)c2c1` (single isomer, unassigned) [Example C1a, 4-(4-(5-chloro-6-fluoro-1H-benzo[d]imidazol-2-yl)cyclohexyl)-6-fluoroquinoline], the EC50 was > 10000 nM.
In the case of `Fc1ccc2nccc([C@H]3CC[C@H](Cc4nc5cc(OC6CC6)ccc5[nH]4)CC3)c2c1` [Example A8a, 4-((1r,4r)-4-((5-cyclopropoxy-1H-benzo[d]imidazol-2-yl)methyl)cyclohexyl)-6-fluoroquinoline], the EC50 is reported as 528 nM.
Molecule `Fc1ccc2nccc([C@H]3CC[C@@H](Cc4nc5cc(C(F)(F)F)ccc5[nH]4)CC3)c2c1` [Example A3b, 6-fluoro-4-((1r,4r)-4-((5-(trifluoromethyl)-1H-benzo[d]imidazol-2-yl)methyl)cyclohexyl)quinoline] has an EC50 of 6.8 nM.
For `COC1CCC(NC(=O)c2ccc3[nH]c(C(C)[C@H]4CC[C@H](c5ccnc6ccc(F)cc65)CC4)nc3c2)CC1` (some centres unmarked) [Example B186, 2-(1-((1r,4r)-4-(6-fluoroquinolin-4-yl)cyclohexyl)ethyl)-N-(4-methoxycyclohexyl)-1H-benzo[d]imidazole-5-carboxamide], the EC50 was 193 nM.
For `NC(=O)c1ccc2[nH]c([C@H]3CC[C@H](c4ccnc5ccc(F)cc54)CC3)nc2c1` [Example C9a, 2-((1r,4r)-4-(6-fluoroquinolin-4-yl)cyclohexyl)-1H-benzo[d]imidazole-5-carboxamide], the EC50 was > 10000 nM.
`CC(c1nc2cc(C(=O)N(C)C)ccc2[nH]1)[C@H]1CC[C@@H](c2ccnc3ccc(F)cc32)CC1` (some centres unmarked) [Example B160, 2-(1-((1s,4s)-4-(6-fluoroquinolin-4-yl)cyclohexyl)ethyl)-N,N-dimethyl-1H-benzo[d]imidazole-5-carboxamide] gave an EC50 of 46 nM.
With `CC(c1nc2ccc(C(=O)NC3COC3)cc2[nH]1)[C@H]1CC[C@@H](c2ccnc3ccc(F)cc32)CC1` (some centres unmarked) [B214] the EC50 was 84 nM.
Work on `Fc1ccc2nccc([C@H]3CC[C@H](c4nc5cc(Cl)ccc5[nH]4)CC3)c2c1` [Example C2a, 4-((1r,4r)-4-(5-chloro-1H-benzo[d]imidazol-2-yl)cyclohexyl)-6-fluoroquinoline] yielded an EC50 of 74 nM.
For `COC(=O)c1ccc2[nH]c([C@@H](C)[C@H]3CC[C@@H](c4ccnc5ccc(F)cc54)CC3)nc2c1` [Example B3a, methyl 2-((S)-1-((1s,4R)-4-(6-fluoroquinolin-4-yl)cyclohexyl)ethyl)-1H-benzo[d]imidazole-5-carboxylate], the EC50 was 0.55 nM.
`Cc1ccc2[nH]c(C3CCC(c4ccnc5ccc(F)cc45)CC3)nc2c1` (centres unmarked) [Example C3, 6-fluoro-4-(4-(5-methyl-1H-benzo[d]imidazol-2-yl)cyclohexyl)quinoline] was tested, and the EC50 was 16 nM.
In the case of `C[C@@H](c1nc2ccc(Cl)cc2[nH]1)C1CCC(c2cnc3ccccc3c2)CC1` (stereo partly drawn) [Example B25b, (R)-3-(4-(1-(6-chloro-1H-benzo[d]imidazol-2-yl)ethyl)cyclohexyl)quinoline], the EC50 is reported as 3.1 nM.
Molecule `Fc1ccc2nccc([C@H]3CC[C@@H](CCc4nc5cc(Cl)ccc5[nH]4)CC3)c2c1` [Example C11, 4-((1r,4r)-4-(2-(5-chloro-1H-benzo[d]imidazol-2-yl)ethyl)cyclohexyl)-6-fluoroquinoline] has an EC50 of 12 nM.
For `CC(c1nc2cc3c(=O)[nH]cnc3cc2[nH]1)[C@H]1CC[C@@H](c2ccnc3ccc(F)cc32)CC1` (some centres unmarked) [Example B151, 2-(1-((1s,4s)-4-(6-fluoroquinolin-4-yl)cyclohexyl)ethyl)-3,7-dihydro-8H-imidazo[4,5-g]quinazolin-8-one], the EC50 was 82.3 nM.
With `COC(=O)c1ccc2[nH]c([C@H](C)[C@H]3CC[C@@H](c4ccnc5ccc(F)cc54)CC3)nc2c1` [Example B3b, methyl 2-((R)-1-((1s,4S)-4-(6-fluoroquinolin-4-yl)cyclohexyl)ethyl)-1H-benzo[d]imidazole-5-carboxylate] the EC50 was 81 nM.
In the case of `C[C@H](c1nc2cc(-c3ccccc3)c(F)cc2[nH]1)[C@H]1CC[C@@H](c2ccnc3ccc(F)cc32)CC1` [B219], the EC50 is reported as 13.7 nM.
`CON(C)C(=O)c1ccc2nc([C@H](C)[C@H]3CC[C@@H](c4ccnc5ccc(F)cc54)CC3)[nH]c2c1` [Example B196] gave an EC50 of 26.5 nM.
`C[C@H](c1nc2cc(F)c(-c3cccnc3)cc2[nH]1)[C@H]1CC[C@@H](c2ccnc3ccc(F)cc32)CC1` [B152] gave an EC50 of 62.9 nM.
For `CCOC(=O)c1ccc2[nH]c(C(C)[C@H]3CC[C@@H](c4ccnc5ccc(F)cc54)CC3)nc2c1` (some centres unmarked) [B161], the EC50 was 1.6 nM.
For `C[C@@H](c1nc2c(F)cc(F)c(Cl)c2[nH]1)[C@H]1CC[C@H](c2ccnc3ccc(F)cc32)CC1` [Example B205, 4-((1R,4r)-4-((R)-1-(7-chloro-4,6-difluoro-1H-benzo[d]imidazol-2-yl)ethyl)cyclohexyl)-6-fluoroquinoline], the EC50 was 28.9 nM.
`CCOC(=O)c1cc2nc([C@@H](C)C3CCC(c4ccnc5ccc(F)cc45)CC3)[nH]c2cc1C` (stereo partly drawn) [Example B200, ethyl 2-((S)-1-((1s,4S)-4-(6-fluoroquinolin-4-yl)cyclohexyl)ethyl)-6-methyl-1H-benzo[d]imidazole-5-carboxylate] showed an EC50 of 73.3 nM.
`CC(C)OC(=O)c1ccc2nc(C(C)[C@H]3CC[C@@H](c4ccnc5ccc(F)cc54)CC3)[nH]c2c1` (some centres unmarked) [B168] gave an EC50 of 4.86 nM.
Work on `CC(c1nc2cc(-c3ccccc3)c(F)cc2[nH]1)C1CCC(c2ccnc3ccc(F)cc23)CC1` (centres unmarked) [B181] yielded an EC50 of 2.7 nM.
`COC(=O)c1ccc2[nH]c([C@H]3CC[C@H](c4ccnc5ccc(F)cc54)CC3)nc2c1` [Example C8a, methyl 2-((1r,4r)-4-(6-fluoroquinolin-4-yl)cyclohexyl)-1H-benzo[d]imidazole-5-carboxylate] gave an EC50 of 1200 nM.
Work on `COC(=O)c1cc(C)c2nc([C@H](C)[C@H]3CC[C@@H](c4ccnc5ccc(F)cc54)CC3)[nH]c2c1` [Example B141, methyl 2-((R)-1-((1s,4S)-4-(6-fluoroquinolin-4-yl)cyclohexyl)ethyl)-4-methyl-1H-benzo[d]imidazole-6-carboxylate] yielded an EC50 of 6.89 nM.
`Fc1ccc2nccc(C3CCC(CCc4nc5cc(C6CC6)ccc5[nH]4)CC3)c2c1` (centres unmarked) [Example C10, 4-(4-(2-(5-cyclopropyl-1H-benzo[d]imidazol-2-yl)ethyl)cyclohexyl)-6-fluoroquinoline] gave an EC50 of 7 nM.
`C[C@@H](c1nc2cc(F)c(F)c(Cl)c2[nH]1)[C@H]1CC[C@H](c2ccnc3ccc(F)cc32)CC1` [Example B190, 4-((1R,4r)-4-((R)-1-(7-chloro-5,6-difluoro-1H-benzo[d]imidazol-2-yl)ethyl)cyclohexyl)-6-fluoroquinoline] was tested, and the EC50 was 5.74 nM.
`C[C@@H](c1nc2c(F)c(F)cc(Cl)c2[nH]1)[C@H]1CC[C@@H](c2ccnc3ccc(F)cc32)CC1` [Example B124, 4-((1S,4s)-4-((R)-1-(7-chloro-4,5-difluoro-1H-benzo[d]imidazol-2-yl)ethyl)cyclohexyl)-6-fluoroquinoline] gave an EC50 of 16.4 nM.
`C[C@@H](c1nc2c(F)cc(F)c(Cl)c2[nH]1)[C@H]1CC[C@@H](c2ccnc3ccc(F)cc32)CC1` [Example B204, 4-((1R,4s)-4-((S)-1-(7-chloro-4,6-difluoro-1H-benzo[d]imidazol-2-yl)ethyl)cyclohexyl)-6-fluoroquinoline] showed an EC50 of 6.79 nM.
